From patent US12552733B2, “Terpenophenolic compounds and their use” (Phytotherapeutix Ltd., priority 2020, dated 2026)

Key:
[1] = PK study: plasma levels after i.p. administration, LC/MS/MS; type: in vivo, Mouse; conditions: 100 mg/kg i.p.; sampled at 30, 60, 120 min
Experimental: For testing of each compound, six CD-1 mice were divided into 2 groups of 3. Animals were administered test agents via i.p. route and blood collected at 30, 60 and 120 min, administration as outlined in Table 1. Blood samples were collected in EDTA-coated microfuge tubes, inverted and placed on an ice pack prior to centrifugation and storage at −70° C. Samples were extracted using an acetonitrile/protein precipitation method and levels of test agent analysed by LC/MS/MS.
Bioanalytical detection method was developed using an LC/MS/MS (ABI 5000 or 5500). Standard curves of the test agent were prepared in an appropriate biological matrix (plasma). Levels of test article was measured in plasma as per the developed method.
Levels were determined by extrapolating the concentration from a standard curve using linear regression analysis. Method development and bioanalysis was performed by a partner company, Keystone Bioanalytical (North Wales, PA, US).

[2] = tested on: PTZ mouse model of seizures; assay: PTZ-induced seizures study; type: in vivo; conditions: 30 min pretreatment; for protection from clonic seizures (PTZ) vs vehicle-treated animals / protection from tonic hindlimb seizures (PTZ) vs vehicle-treated animals: test compounds 200 mg/kg IP, CBD 100 mg/kg IP, 60 min, PTZ 100 mg/kg i.p.
Experimental: Mice were acclimated to the procedure room for at least 30 minutes. Pentylenetetrazole (PTZ; SigmaAldrich) was formulated in water to a concentration of 20 mg/ml. Injections of PTZ were made at a volume of 5 mI/kg to produce a final dose of 100 mg/kg. PTZ injections were i.p. Diazepam was formulated at a concentration of 2 mg/mL and administered at volume of 10 mL/kg to produce a final dose of 20 mg/kg. Time to initial myoclonic and tonic hindlimb extensor response was measured. A 10-min maximum latency to seizure was imposed.
(§1) The data was expressed as mean+SEM. Statistical analysis using one-way ANOVA with post-hoc Fisher's LSD test was used to determine statistical significance compared to the vehicle-treated animals.
(§2) Animals received treatments according to Table 3.
as §2

[3] = tested on: MES mouse model of seizures; assay: Maximal Electroshock (MES) seizure study; type: in vivo; conditions: test compounds 200 mg/kg IP, 30 min pretreatment, CBD 100 mg/kg IP, 60 min, one-way ANOVA, Fisher's LSD
Experimental: Animals were administered vehicle, phenytoin, CBD or test compounds and gross behavioural observations were done for 30 minutes. Proparacaine hydrochloride ophthalmic solution (Butler AHS, Dublin, OH) was applied approximately 10 minutes prior to testing to numb the eyes. Thirty to sixty minutes after administration of vehicle,phenytoin, CBD or test compounds, 0.9% saline solution (sodium chloride in water) was applied to both eyes and electro-convulsions were produced by an alternating current delivered via corneal electrodes by a Rodent Shocker generator at a frequency of 60 Hz (Harvard Apparatus, Holliston, Mass.). Parameters for the ICR:CD1 mice were 0.2 s stimulus duration at an intensity of 25 mA. The criterion for seizure occurrence were presence of a tonic hind limb extension, defined as extension exceeding a 90-degree angle with the plane of the body. […] Any seizure activity (i.e. clonic seizures defined as rapid spasms or jerky movements of the limbs) prior to tonic hind limb seizure were recorded as presence of seizure (noted as 1-yes, 0-no). After seizure exhibition or 20-second timeout, mice were euthanized via cervical dislocation.
as §1
The results of the MES study are illustrated in FIG. 4: MES: Latency in seconds for seizures to occur in mice. Animals received treatments according to Table 2. […] Data are expressed as the average ±SEM. Data were analysed by One-way ANOVA, followed by a post-hoc Fisher's LSD test. ***P<0.001, *P<0.05, n=1 PTZ Study

C=C(C)[C@@H]1CCC(C)=C[C@H]1c1c(O)cc(CCc2ccccc2)cc1O [(−)-trans-CBD-PET, (1′R,2′R)-5′-methyl-4-phenethyl-2′-(prop-1-ene-2-yl)-1′,2′,3′,4′-tetrahydro-[1,1′-biphenyl]-2,6-diol]
time at which maximal concentration in plasma was achieved after the injection [1]: 30 min
protection from clonic seizures (PTZ) vs vehicle-treated animals ([2]; listed as (−)-trans CBD-PET): significant protection from clonic seizures
protection from tonic hindlimb seizures (PTZ) vs vehicle-treated animals ([2]; listed as (−)-trans CBD-PET): significant effect, protecting from tonic hindlimb seizures
protection from clonic seizures (PTZ) vs vehicle-treated animals ([2]; listed as CBD-PET): showing activity against both clonic and tonic seizures
protection from tonic hindlimb seizures (PTZ) vs vehicle-treated animals ([2]; listed as CBD-PET): showing activity against both clonic and tonic seizures

C=C(C)[C@@H]1CCC(C)=C[C@H]1c1c(O)cc(CCc2ccc(O)cc2)cc1O [(−)-trans-CBD-PET-OH, (1′R,2′R)-4-(4-hydroxyphenethyl)-5′-methyl-2′-(prop-1-ene-2-yl)-1′,2′,3′,4′-tetrahydro-[1,1′-biphenyl]-2,6-diol]
time at which maximal concentration in plasma was achieved after the injection [1]: 30 min
effect in the MES study (latency to tonic hindlimb seizure) vs vehicle ([3]; listed as (−)-trans CBD-PET-OH): significantly different from vehicle
effect in the MES study (latency to tonic hindlimb seizure) vs vehicle ([3]; listed as CBD-PET-OH): effective
protection from tonic hindlimb seizures (PTZ) vs vehicle-treated animals ([2]; listed as (−)-trans CBD-PET-OH): significant effect, protecting from tonic hindlimb seizures
protection from tonic hindlimb seizures (PTZ) vs vehicle-treated animals ([2]; listed as CBD-PET-OH): particularly effective against tonic seizures

C=C(C)[C@@H]1CCC(C)=C[C@H]1c1c(O)cc(CCCCC)cc1O [Cannabidiol, reference compound]
effect in the MES study (latency to tonic hindlimb seizure) vs vehicle [3]: did not produce a significant effect
protection from clonic seizures (PTZ) vs vehicle-treated animals [2]: did not produce a significant effect
protection from tonic hindlimb seizures (PTZ) vs vehicle-treated animals [2]: did not produce a significant effect

CN1C(=O)CN=C(c2ccccc2)c2cc(Cl)ccc21 [diazepam, reference compound]
protection from the seizures (PTZ; clonic and tonic hindlimb, FIGS. 5 and 6) ([2]; PO, p<0.05): 100%
